{"source": "patent US20220287938A1", "about": "“COSMETIC COMPOSITION COMPRISING EUTECTIC MIXTURE” (LG HOUSEHOLD & HEALTH CARE LTD., priority 2019, published 2022)", "key": {"human fibroblasts": {"tested_on": "human fibroblasts", "assay": "Total amount of collagen produced (PICP EIA kit)", "type": "cell-based", "conditions": "for Average absorbance: 450 nm, number of repeats=3; for Collagen increase rate (%): relative to control (no additive)", "method": "The total amount of collagen was quantified using a PICP kit (Procollagen Type I C-Peptide Enzyme ImmunoAssay KIT).\nSpecifically, after each sample was added to the culture medium of human fibroblasts and cultured for 1 day, the culture medium was taken, and a degree of increase in the total amount of collagen at each concentration was measured at 450 nm using a spectrophotometer with the PICP EIA kit."}, "HaCaT cells": {"tested_on": "HaCaT cells", "assay": "Scratch wound healing (skin regeneration promotion)", "type": "cell-based, human", "method": "HaCaT cells, which are a human-derived keratinocyte cell line, were cultured under conditions of 37° C. and 5% CO2 using a DMEM medium (ADDEXBIO TECHNOLOGIES, San Diego, Calif., USA) supplemented with 10% fetal bovine serum (Gibco, Waltham, Mass., USA), […] and […]. After the cultured cells were seeded into a 24-well plate so as to have 2.0×10^5 cells per well, and then cultured for 24 hours, the cells were washed once with PBS, and scratches having a perpendicular line shape were created on the center of the plate by scraping the cells with a 200 μl pipet tip. The cells were washed twice with PBS to remove the dropped cell debris, and the medium was replaced with a […] DMEM containing each test material. In order to always capture the same part when the cells were photographed, the center of the well was marked with a fine marker and the cell photograph of the marked part was taken at the same time at the start of the experiment (0 hours). The cell photographs after 2, 4 and 24 hours were also taken in the same way. After a scratch area created on monolayer cells was measured from the photographs after 0 hours and 24 hours using an image analysis program (Image J), the area filled with the scratch area was shown as a wound healing percentage (%) according to the following General Formula 1."}, "back skin of a pig": {"tested_on": "back skin of a pig", "assay": "Keratin exfoliation effect on pig back skin (exfoliated keratin counted with cell counter)", "method": "In order to confirm the keratin exfoliation effect of the aqueous eutectic mixture solution by the serine concentration of Example 2, the back skin of a pig was treated with the aqueous solution. Specifically, a 6-mm diameter sample with a thickness of 1 mm was taken from the back skin of the pig using a biopsy tool. After the sample was placed on a 96-well plate and washed once with phosphate buffered saline (PBS), 100 μl of the aqueous eutectic mixture solution of Example 2 was added thereto. In this case, to compare the keratin exfoliation effects, 100 μl of Comparative Example 4, a solution containing serine and malic acid, was added to the back skin of a pig in the same manner as described above. After the pig's back skin sample treated with each aqueous solution was stored under conditions of a temperature of 37° C. and humidity of 50% for 16 hours, the keratin exfoliation effect was confirmed by measuring the number of exfoliated keratin with a cell counter. In this case, a sample to which water was added was used as a negative control, a sample to which 10% gluconolactone (polyhydroxy acid, PHA) with a pH of 4, which is a known keratin exfoliating substance, was added was used as a first positive control, and a sample to which 10% gluconolactone with a pH of 6 was added was used as a second positive control. In the case of the second positive control, the keratin exfoliation effect was evaluated based on the condition that the efficacy was 15 to 20% compared to the first positive control. Here, the first positive control is applied as a reference for comparing the values between the actual experimental examples, and a relative keratin exfoliation value (%) was calculated and described as [(result value of sample)/(value of first positive control group)×100]. […]\nFurthermore, it was confirmed whether the eutectic mixture was dissociated by observing the properties of a cosmetic (essence) including the eutectic mixture of Example 12, which was allowed to stand under separation conditions of the eutectic composition (Table 27) and confirming changes in melting point through measurement by differential scanning calorimetry (DSC) (Table 28) and the keratin exfoliation effect (Table 29), of the cosmetic. […] The melting point is expressed as a heat flow with respect to the sample in the DSC, and its accuracy is known to be 0.01° C. The melting point was measured in a pure nitrogen atmosphere, nitrogen was fed into a measuring chamber at a rate of 20 cc/min in order to maintain the nitrogen atmosphere, and the temperature of the chamber was set so as to increase by 10° C. per minute. The mass of the measured sample was confirmed by subtracting the weight of a pan for accommodating the sample in the DSC from the weight including the entire sample. […]"}, "[1]": {"assay": "Skin permeability on pig skin (serine quantified by liquid chromatography)", "type": "in vitro ADME", "conditions": "pH 6.0 (mixtures adjusted to weakly acidic using citric acid); serine 5 parts by weight", "method": "10 μg of each of the aqueous solutions of Comparative Examples 1 and 2 and Example 1 were prepared and applied to pig skin having a uniform area. A tissue soaked with phosphate buffered saline (PBS) was placed on a 6-well plate and stored with the pig skin placed on the tissue under conditions of a temperature of 37° C. and a humidity of 50% for 12 hours. Then, the sample that could not penetrate the skin was removed using a cotton swab and a keratin tape, and the weight of the pig skin was measured. After the pig skin was crushed using a homogenizer, the amino acid and the eutectic mixture in the sample were sufficiently dissolved by adding 1 ml of water thereto, and then the resulting solution was centrifuged at 12,000 rpm for 10 minutes. After centrifugation, 0.5 ml of the supernatant was collected, and the serine concentration of the sample, which would be the amount permeated through the skin, was quantified using liquid chromatography with standard samples, and then transmittance was obtained by dividing the quantified concentration by the weight of the pig skin and comparing this to the initially introduced serine mass, as serine amount per gram of the tissue. The results of the skin permeability are illustrated in FIG. 2.\nThe skin permeability of the eutectic mixture prepared in Experimental Example 12 was confirmed. […]"}}, "data": [{"compound": "N=C(N)NCCC[C@H](N)C(=O)O", "note": "[Arg, arginine]", "values": [{"measurement": "Average absorbance", "setting": "human fibroblasts; 10 ppm, cultured for 1 day", "result": 2.429}, {"measurement": "Collagen increase rate (%)", "setting": "human fibroblasts; 10 ppm", "result": 19.3, "unit": "%"}, {"measurement": "Wound healing percentage (%) after 24 hours", "setting": "HaCaT cells; 10 ppm (mixtures based on the concentration of arginine)", "result": 73.5, "unit": "%"}]}, {"compound": "N[C@@H](CCC(=O)O)C(=O)O", "note": "[Glu, glutamic acid]", "values": [{"measurement": "Average absorbance", "setting": "human fibroblasts; 10 ppm, cultured for 1 day", "result": 2.240}, {"measurement": "Collagen increase rate (%)", "setting": "human fibroblasts; 10 ppm", "result": 10.0, "unit": "%"}, {"measurement": "Wound healing percentage (%) after 24 hours", "setting": "HaCaT cells; 1 ppm", "result": 70.1, "unit": "%"}]}, {"compound": "O=C1O[C@H](CO)[C@@H](O)[C@H](O)[C@H]1O", "note": "[PHA, gluconolactone]", "values": [{"measurement": "Keratin exfoliation relative value (%)", "setting": "back skin of a pig; pH 4.0, 10% gluconolactone, first positive control (reference = 100)", "result": 100, "unit": "%"}, {"measurement": "Keratin exfoliation relative value (%)", "setting": "back skin of a pig; pH 4.0, first positive control (reference = 100)", "result": 100, "unit": "%"}, {"measurement": "Keratin exfoliation relative value (%)", "setting": "back skin of a pig; pH 6.0 (mixtures adjusted to weakly acidic using citric acid)", "result": 25.5, "unit": "%"}, {"measurement": "Keratin exfoliation relative value (%)", "setting": "back skin of a pig; pH 6.0, 10% gluconolactone, second positive control", "result": 18.8, "unit": "%"}]}, {"compound": "N[C@@H](CO)C(=O)O", "note": "[Serine, serine]", "values": [{"measurement": "Skin permeability relative value (Maximum value converted to 100%)", "setting": "[1]", "result": 71.7, "unit": "%"}]}, {"compound": "TGF-β", "values": [{"measurement": "Average absorbance", "setting": "human fibroblasts; 10 ng/ml (positive control)", "result": 2.335}, {"measurement": "Collagen increase rate (%)", "setting": "human fibroblasts; 10 ng/ml (positive control)", "result": 14.7, "unit": "%"}]}]}
